Source: patent USRE32333E, “A-21978 Antibiotics and process for their production” (priority 1985, dated 1987)
≈ marks a conversion by molar mass, not a printed value. Where “and” joins values, the source holds several entries; their conditions need not be identical. Equal entries are not always repeated. Where two headings read alike, the source gives them in different places.

Tests used:
[1] = system: Peptococcus asaccharolyticus; experiment: MIC against anaerobic bacteria, standard agar-dilution (Table XIV); type: cell-based; settings: anaerobe
[2] = system: Fusobacterium necrophorum; experiment: as above; type: cell-based; settings: anaerobe
Actinomyces israelii = experiment: as above; type: cell-based; settings: anaerobe
[3] = system: Streptococcus faecalis (Guze); experiment: In vitro susceptibility (MIC) of the S. faecalis Guze strain; type: cell-based
Excerpt: ^1 In vitro susceptibility of the S. faecalis Guze strain

[4] = system: Group D Streptococcus 282; experiment: MIC, standard broth-dilution test (Table XII); type: cell-based; settings: aerobic
Staphylococcus aureus [5] = experiment: MIC against clinical isolates, ICS agar-dilution (Table XIII); type: cell-based; settings: 10 clinical isolates, bracket = number of isolates with this MIC or range
[6] = Rat, IV
Streptococcus pyogenes [7] = experiment: MIC, agar dilution (Table XV); type: cell-based
Excerpt: (§1) ^1 MIC = minimum inhibitory concentration (μg/ml), agar dilution

Streptococcus pneumoniae [8] = experiment: MIC, agar dilution (Table XV); type: cell-based
Excerpt: as §1

Staphylococcus aureus [9] = experiment: MIC, agar dilution (Table XV); type: cell-based
Excerpt: as §1

[10] = system: Staphylococcus aureus 3055; experiment: MIC, standard broth-dilution test (Table XII); type: cell-based; settings: aerobic, S. aureus 3055
[11] = system: Peptostreptococcus anaerobius; experiment: MIC against anaerobic bacteria, standard agar-dilution (Table XIV); type: cell-based; settings: anaerobe
Streptococcus pyogenes [12] = experiment: Experimental bacterial infection in mice, ED50; type: in vivo; settings: S. pyogenes infection, two doses
Protocol: (§2) When two doses of test compound were administered to mice in illustrative infections, the activity observed as measured as an ED50 value [effective dose in mg/kg to protect fifty percent of the test animals: See Warren Wick, et al., J. Bacteriol, 81, 233-235 (1961)].

Streptococcus pneumoniae [13] = experiment: Experimental bacterial infection in mice, ED50; type: in vivo; settings: S. pneumoniae infection, two doses, subcutaneous administration
Protocol: as §2

Staphylococcus aureus [14] = experiment: Experimental bacterial infection in mice, ED50; type: in vivo; settings: S. aureus infection, two doses, subcutaneous administration
Protocol: as §2

Clostridium perfringens = settings: anaerobe, agar-dilution
[15] = Electrometric titration in 66% aqueous dimethylformamide; type: physicochemical; settings: 66% DMF, Na salt forms; factors: two determinations
Bacteroides fragilis = experiment: MIC against anaerobic bacteria, standard agar-dilution (Table XIV); type: cell-based; settings: anaerobe
[16] = system: Streptococcus pyogenes C203; experiment: MIC, standard broth-dilution test (Table XII); type: cell-based; settings: aerobic, S. pyogenes C203
[17] = Mouse
Peptococcus prevoti = experiment: MIC against anaerobic bacteria, standard agar-dilution (Table XIV); type: cell-based; settings: anaerobe
[18] = system: Group D Streptococcus 282; experiment: MIC, standard agar-dilution test (Table XI); type: cell-based; settings: aerobic, sodium salt form
[19] = system: Staphylococcus aureus 3055; experiment: MIC, standard agar-dilution test (Table XI); type: cell-based; settings: aerobic, S. aureus 3055, sodium salt form
[20] = system: Staphylococcus epidermidis; experiment: MIC against clinical isolates, ICS agar-dilution (Table XIII); type: cell-based; settings: 12 clinical isolates, bracket = number of isolates with this MIC or range
[21] = system: Streptococcus pyogenes C203; experiment: MIC, standard agar-dilution test (Table XI); type: cell-based; settings: aerobic, S. pyogenes C203, sodium salt form
[22] = system: Streptococcus pneumoniae Park I; experiment: MIC, standard broth-dilution test (Table XII); type: cell-based; settings: aerobic, S. pneumoniae Park I
Fusobacterium symbiosum = experiment: MIC against anaerobic bacteria, standard agar-dilution (Table XIV); type: cell-based; settings: anaerobe
Eubacterium aerofaciens = experiment: as above; type: cell-based; settings: anaerobe
[23] = system: Viridans Streptococcus 9943; experiment: MIC, standard broth-dilution test (Table XII); type: cell-based; settings: aerobic
[24] = system: Neisseria gonorrhoeae 111076-4; experiment: MIC, standard agar-dilution test (Table XI); type: cell-based; settings: aerobic, N. gonorrhoeae 111076-4, sodium salt form
[25] = system: Viridans Streptococcus 9943; experiment: MIC, standard agar-dilution test (Table XI); type: cell-based; settings: aerobic, sodium salt form
[26] = system: Peptostreptococcus intermedius; experiment: MIC against anaerobic bacteria, standard agar-dilution (Table XIV); type: cell-based; settings: anaerobe
Propionibacterium acnes = experiment: as above; type: cell-based; settings: anaerobe
[27] = system: Streptococcus pneumoniae Park I; experiment: MIC, standard agar-dilution test (Table XI); type: cell-based; settings: aerobic, S. pneumoniae Park I, sodium salt form
Micrococcus luteus = experiment: Paper-disc agar-diffusion bioassay; settings: individual factors, Na salts
Clostridium septicum = experiment: MIC against anaerobic bacteria, standard agar-dilution (Table XIV); type: cell-based; settings: anaerobe
[28] = system: Streptococcus faecalis (Guze); experiment: Streptococcus faecalis descending rat pyelonephritis test; settings: 1.0 mg/kg x 7 subcutaneous

Structure (SMILES): CCC(C)CCCCCCC(=O)N[C@@H](Cc1c[nH]c2ccccc12)C(=O)NC(CC(N)=O)C(=O)N[C@@H](CC(=O)O)C(=O)N[C@@H]1C(=O)NCC(=O)N[C@@H](CCCN)C(=O)N[C@@H](CC(=O)O)C(=O)N[C@H](C)C(=O)N[C@@H](CC(=O)O)C(=O)NCC(=O)N[C@H](CO)C(=O)N[C@@H]([C@H](C)CC(=O)O)C(=O)N[C@@H](CC(=O)c2ccccc2N)C(=O)O[C@@H]1C (stereo in doubt) [Factor C1]
- MIC [1]: 4 µg/mL (≈ 2.45 µM)
- MIC [2]: 64 µg/mL (≈ 39.2 µM)
- MIC (Actinomyces israelii): 4 µg/mL (≈ 2.45 µM)
- MIC [3]: 1.0 µg/mL (≈ 0.612 µM)
- MIC [4]: 2.0 µg/mL (≈ 1.22 µM)
- Minimum Inhibitory Concentration (Staphylococcus aureus [5]): 0.5 µg/mL
- LD50 [6]: 479 ± 32 mg/kg
- MIC (Streptococcus pyogenes [7]): 0.13 µg/mL (≈ 0.0795 µM)
- MIC (Streptococcus pneumoniae [8]): 0.13 µg/mL (≈ 0.0795 µM)
- MIC (Staphylococcus aureus [9]): 0.5 µg/mL (≈ 0.306 µM)
- MIC [10]: 1.0 µg/mL (≈ 0.612 µM)
- MIC [11]: 2 µg/mL (≈ 1.22 µM)
- ED50 (Streptococcus pyogenes [12]; oral administration): 93 mg/kg
- ED50 (Streptococcus pyogenes [12]; subcutaneous administration): 0.064 mg/kg
- ED50 (Streptococcus pneumoniae [13]): 0.3 mg/kg
- ED50 (Staphylococcus aureus [14]): 0.22 mg/kg
- MIC (Clostridium perfringens): 16 µg/mL (≈ 9.79 µM)
- pKa Values (first group) [15]: 5.7 and 5.9
- MIC (Bacteroides fragilis): > 128 µg/mL
- MIC [16]: 0.5 µg/mL (≈ 0.306 µM)
- LD50 ([17]; IV): > 250 mg/kg
- LD50 ([17]; SC): > 365 mg/kg
- MIC (Peptococcus prevoti): 2 µg/mL (≈ 1.22 µM)
- MIC [18]: 1.0 µg/mL
- MIC [19]: 0.5 µg/mL
- Minimum Inhibitory Concentration [20]: 0.13 to 0.25 µg/mL
- MIC [21]: 0.13 µg/mL
- MIC [22]: 2.0 µg/mL (≈ 1.22 µM)
- MIC (Fusobacterium symbiosum): > 128 µg/mL
- MIC (Eubacterium aerofaciens): 16 µg/mL (≈ 9.79 µM)
- MIC [23]: 32.0 µg/mL (≈ 19.6 µM)
- MIC [24]: 16.0 µg/mL
- MIC [25]: 0.5 µg/mL
- MIC [26]: 4 µg/mL (≈ 2.45 µM)
- MIC (Propionibacterium acnes): 8 µg/mL (≈ 4.89 µM)
- MIC [27]: 0.13 µg/mL
- Bioassay (Micrococcus luteus) (Micrococcus luteus): 1663 units/mg
- MIC (Clostridium septicum): 4 µg/mL (≈ 2.45 µM)
- Percent of Rats Cured ([28]; cure = kidney counts less than 10^2 per g): 50
- Percent of Rats with a 4-Log Titer Decrease ([28]; once daily, kidney titer vs infected controls): 50
